This note sets out measurements from US20250179061A1 (SIRONAX LTD., priority 2022, published 2025).

In this assay the test system is HT-29 cells. As to the kind of experiment: HT-29 necroptosis cell viability assay (TNF-α/SMAC mimetic/zVAD-FMK, CellTiter-Glo). The note with it: Homo sapiens. It is filed as cell-based. In a few lines:
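Necroptosis was triggered by TNF-α (10 ng/ml), SMAC mimetic (6 μM) and zVAD-FMK (10 μM) in serum-free medium during 20 h compound exposure (10 concentrations, threefold steps) of HT-29 cells. IC50 from duplicate dose-responses uses CellTiter-Glo ATP luminescence as viability read-out.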
A general note: ATP-based viability assays read luminescence as a measure of living cells.

Where [1] appears, read: HT-29, HT-29 necroptosis cell viability assay, class symbols for IC50, read-out: Activity.
[2] abbreviates: HT-29, HT-29 cells, necroptosis induced by TNF-α/SMAC mimetic/zVAD-FMK, CellTiter-Glo, read-out: Activity (IC50 class).

Where two headings read alike, the source gives them in different places.

With `Cc1nc(C(N)=O)sc1Oc1ccc(-n2ncn(Cc3ncccc3F)c2=O)cc1F` [Example 606, 5-(2-fluoro-4-(4-((3-fluoropyridin-2-yl)methyl)-5-oxo-4,5-dihydro-1H-1,2,4-triazol-1-yl)phenoxy)-4-methylthiazole-2-carboxamide], the IC50 under setting [1] is < 100 nM.
As for `Cc1nc(C(=O)NCC2COC2)sc1Oc1ccc(-n2ncn(Cc3ncccc3F)c2=O)cc1F` [Example 607, 5-(2-fluoro-4-(4-((3-fluoropyridin-2-yl)methyl)-5-oxo-4,5-dihydro-1H-1,2,4-triazol-1-yl)phenoxy)-4-methyl-N-(oxetan-3-ylmethyl)thiazole-2-carboxamide], under setting [1], the IC50 was < 100 nM.
In the case of `Cc1nc(C(=O)N2CC(C)(O)C2)sc1Oc1ccc(-n2ncn(Cc3ncccc3F)c2=O)cc1F` [Example 608, 2-(3-fluoro-4-((2-(3-hydroxy-3-methylazetidine-1-carbonyl)-4-methylthiazol-5-yl)oxy)phenyl)-4-((3-fluoropyridin-2-yl)methyl)-2,4-dihydro-3H-1,2,4-triazol-3-one], under setting [1], the IC50 was < 100 nM.
As for `CNC(=O)c1nc(C)c(Oc2ccc(-n3ncn(Cc4c(F)cccc4F)c3=O)cc2F)s1` [Example 609, 5-(4-(4-(2,6-difluorobenzyl)-5-oxo-4,5-dihydro-1H-1,2,4-triazol-1-yl)-2-fluorophenoxy)-N,4-dimethylthiazole-2-carboxamide], under setting [1], the IC50 was < 100 nM.
`CCNC(=O)c1nc(C)c(Oc2ccc(-n3ncn(Cc4c(F)cccc4F)c3=O)cc2F)s1` [Example 610, 5-(4-(4-(2,6-difluorobenzyl)-5-oxo-4,5-dihydro-1H-1,2,4-triazol-1-yl)-2-fluorophenoxy)-N-ethyl-4-methylthiazole-2-carboxamide]: the IC50 under setting [1] was < 100 nM.
For the compound `Cc1nc(C(=O)N(C)C)sc1Oc1ccc(-n2ncn(Cc3c(F)cccc3F)c2=O)cc1F` [Example 611, 5-(4-(4-(2,6-difluorobenzyl)-5-oxo-4,5-dihydro-1H-1,2,4-triazol-1-yl)-2-fluorophenoxy)-N,N,4-trimethylthiazole-2-carboxamide], the IC50 under setting [1] was < 100 nM.
Same read-out and setting: the result for `Cc1nc(NC(=O)OC(C)(C)C)sc1Sc1ccc(-n2ncn(Cc3ccccc3)c2=O)cc1` [Example 612, tert-butyl (5-((4-(4-benzyl-5-oxo-4,5-dihydro-1H-1,2,4-triazol-1-yl)phenyl)thio)-4-methylthiazol-2-yl)carbamate] reads < 100 nM.
Same read-out and setting: the result for `Cc1nc(C2(N)CC2)sc1Oc1ccc(-n2ncn(Cc3c(F)cccc3F)c2=O)cc1F` [Example 613, 2-(4-((2-(1-aminocyclopropyl)-4-methylthiazol-5-yl)oxy)-3-fluorophenyl)-4-(2,6-difluorobenzyl)-2,4-dihydro-3H-1,2,4-triazol-3-one] reads < 100 nM; that for `Cc1nc(C2(N)COC2)sc1Oc1ccc(-n2ncn(Cc3c(F)cccc3F)c2=O)cc1F` [Example 614, 2-(4-((2-(3-aminooxetan-3-yl)-4-methylthiazol-5-yl)oxy)-3-fluorophenyl)-4-(2,6-difluorobenzyl)-2,4-dihydro-3H-1,2,4-triazol-3-one], < 100 nM.
`N#Cc1cc(S(=O)(=O)c2ccc(-n3ncn(Cc4ccccc4)c3=O)cc2)ccn1` [Example 615, 4-((4-(4-benzyl-5-oxo-4,5-dihydro-1H-1,2,4-triazol-1-yl)phenyl)sulfonyl)picolinonitrile]: under setting [1], the IC50 was < 100 nM.
With `COc1cc(S(=O)(=O)c2ccc(-n3ncn(Cc4ccccc4)c3=O)cc2)ccn1` [Example 616, 4-benzyl-2-(4-((2-methoxypyridin-4-yl)sulfonyl)phenyl)-2,4-dihydro-3H-1,2,4-triazol-3-one], the IC50 under setting [1] was < 100 nM.
Turning to `COc1cc(S(=O)(=O)c2ccc(-n3nc4n(c3=O)C(c3ccccc3)CC4)cc2)ccn1` (stereo not shown) [Example 617, 2-(4-((2-methoxypyridin-4-yl)sulfonyl)phenyl)-5-phenyl-2,5,6,7-tetrahydro-3H-pyrrolo[2,1-c][1,2,4]triazol-3-one], the IC50 under setting [1] was < 100 nM.
For the compound `COc1cc(S(=O)(=O)c2ccc(-n3ncn(Cc4c(F)cccc4F)c3=O)cc2)ccn1` [Example 618, 4-(2,6-difluorobenzyl)-2-(4-((2-methoxypyridin-4-yl)sulfonyl)phenyl)-2,4-dihydro-3H-1,2,4-triazol-3-one], under setting [1], the IC50 was < 100 nM.
With `Cc1nn(-c2ccc(S(=O)(=O)N3CCN(C4CCCC4)CC3)cc2)c(=O)n1Cc1ccccc1` [Example 619, 4-benzyl-2-(4-((4-cyclopentylpiperazin-1-yl)sulfonyl)phenyl)-5-methyl-2,4-dihydro-3H-1,2,4-triazol-3-one], under setting [1], the IC50 was > 10000 nM.
In the case of `Cc1nn(-c2ccc(S(=O)(=O)N3CCN(C4CCCCC4)CC3)cc2)c(=O)n1Cc1ccccc1` [Example 620, 4-benzyl-2-(4-((4-cyclohexylpiperazin-1-yl)sulfonyl)phenyl)-5-methyl-2,4-dihydro-3H-1,2,4-triazol-3-one], under setting [1], the IC50 fell in the range of 1000 to 10000 nM.
Turning to `Cc1nn(-c2ccc(S(=O)(=O)N3CCN(C4CCOCC4)CC3)cc2)c(=O)n1Cc1ccccc1` [Example 621, 4-benzyl-5-methyl-2-(4-((4-(tetrahydro-2H-pyran-4-yl)piperazin-1-yl)sulfonyl)phenyl)-2,4-dihydro-3H-1,2,4-triazol-3-one], under setting [1], the IC50 is > 10000 nM.
For the compound `Cc1nn(-c2ccc(S(=O)(=O)N3CCN(CC4CCOCC4)CC3)cc2)c(=O)n1Cc1ccccc1` [Example 622, 4-benzyl-5-methyl-2-(4-((4-((tetrahydro-2H-pyran-4-yl)methyl)piperazin-1-yl)sulfonyl)phenyl)-2,4-dihydro-3H-1,2,4-triazol-3-one], the IC50 under setting [1] is 100 to 1000 nM.
Take `Cc1nn(-c2ccc(S(=O)(=O)N3CCN(C4COC4)CC3)cc2)c(=O)n1Cc1ccccc1` [Example 623]: under setting [1], the IC50 was > 10000 nM.
On to `Cc1nn(-c2ccc(S(=O)(=O)N3CCN(CC4CCC4)CC3)cc2)c(=O)n1Cc1ccccc1` [Example 624], for which, under setting [1], the IC50 was in the range of 1000 to 10000 nM.
On to `Cc1nn(-c2ccc(S(=O)(=O)N3CCN(CC4CCOC4)CC3)cc2)c(=O)n1Cc1ccccc1` (stereo not shown) [Example 625, 4-benzyl-5-methyl-2-(4-((4-((tetrahydrofuran-3-yl)methyl)piperazin-1-yl)sulfonyl)phenyl)-2,4-dihydro-3H-1,2,4-triazol-3-one], for which the IC50 under setting [1] was in the range of 100 to 1000 nM.
Same read-out and setting: the value for `Cc1nn(-c2ccc(S(=O)(=O)N3CCN(C4CCCOC4)CC3)cc2)c(=O)n1Cc1ccccc1` (stereo not shown) [Example 626, 4-benzyl-5-methyl-2-(4-((4-(tetrahydro-2H-pyran-3-yl)piperazin-1-yl)sulfonyl)phenyl)-2,4-dihydro-3H-1,2,4-triazol-3-one] was 1000 to 10000 nM; that for `Cc1nc(N)sc1S(=O)(=O)c1ccc(-n2ncn(Cc3ccccc3)c2=O)cc1` [Example 627, 2-(4-((2-amino-4-methylthiazol-5-yl)sulfonyl)phenyl)-4-benzyl-2,4-dihydro-3H-1,2,4-triazol-3-one] was 100 to 1000 nM; that for `Cc1nc(NC(=O)OC(C)(C)C)sc1S(=O)(=O)c1ccc(-n2ncn(Cc3ccccc3)c2=O)cc1` [Example 629, tert-butyl (5-((4-(4-benzyl-5-oxo-4,5-dihydro-1H-1,2,4-triazol-1-yl)phenyl)sulfonyl)-4-methylthiazol-2-yl)carbamate] was 100 to 1000 nM.
Regarding `N#Cc1cc(Oc2ccc(-n3ncn(Cc4c(F)cccc4F)c3=O)cc2)ncn1` [Example 630, 6-(4-(4-(2,6-difluorobenzyl)-5-oxo-4,5-dihydro-1H-1,2,4-triazol-1-yl)phenoxy)pyrimidine-4-carbonitrile], the IC50 under setting [1] was 1000 to 10000 nM.
Regarding `Cc1nc(C2=CCOCC2)sc1Oc1ccc(-n2ncn(Cc3c(F)cccc3F)c2=O)cc1` [Example 631, 4-(2,6-difluorobenzyl)-2-(4-((2-(3,6-dihydro-2H-pyran-4-yl)-4-methylthiazol-5-yl)oxy)phenyl)-2,4-dihydro-3H-1,2,4-triazol-3-one], under setting [2], the IC50 is < 100 nM.
On to `Cc1nc(C2=CCOC2)sc1Oc1ccc(-n2ncn(Cc3c(F)cccc3F)c2=O)cc1` [Example 632, 4-(2,6-difluorobenzyl)-2-(4-((2-(2,5-dihydrofuran-3-yl)-4-methylthiazol-5-yl)oxy)phenyl)-2,4-dihydro-3H-1,2,4-triazol-3-one], for which, under setting [2], the IC50 is < 100 nM.
Consider `Cc1nc(C2=NCCN2C)sc1Oc1ccc(-n2ncn(Cc3c(F)cccc3F)c2=O)cc1` [Example 633, 4-(2,6-difluorobenzyl)-2-(4-((4-methyl-2-(1-methyl-4,5-dihydro-1H-imidazol-2-yl)thiazol-5-yl)oxy)phenyl)-2,4-dihydro-3H-1,2,4-triazol-3-one], for which, under setting [2], the IC50 was < 100 nM.
Take `Cc1nc(C=O)sc1Oc1ccc(-n2ncn(Cc3c(F)cccc3F)c2=O)cc1F` [Example 634, 5-[4-[4-[(2,6-difluorophenyl)methyl]-5-oxo-1,2,4-triazol-1-yl]-2-fluoro-phenoxy]-4-methyl-thiazole-2-carbaldehyde]: the IC50 under setting [2] was < 100 nM.
Consider `Cc1nc(C(N)=O)sc1OC1CCC(n2nc3n(c2=O)[C@H](c2ccccc2)CC3)CC1` (stereo partly drawn) [Example 635, (S)-4-methyl-5-((4-(3-oxo-5-phenyl-6,7-dihydro-3H-pyrrolo[2,1-c][1,2,4]triazol-2(5H)-yl)cyclohexyl)oxy)thiazole-2-carboxamide], for which the IC50 under setting [2] was 1000 to 10000 nM.
As for `Cc1nc(CC(=O)O)sc1Oc1ccc(-n2ncn(Cc3c(F)cccc3F)c2=O)cc1F` [Example 637, 2-[5-[4-[4-[(2,6-difluorophenyl)methyl]-5-oxo-1,2,4-triazol-1-yl]-2-fluoro-phenoxy]-4-methyl-thiazol-2-yl]acetic acid], the IC50 under setting [2] was < 100 nM.
Same read-out and setting: the value for `Cc1nc(C(=O)NC2CCOCC2)sc1Oc1ccc(-n2ncn(Cc3ccccc3F)c2=O)cc1F` [Example 642, 5-[2-fluoro-4-[4-[(2-fluorophenyl)methyl]-5-oxo-1,2,4-triazol-1-yl]phenoxy]-4-methyl-N-tetrahydropyran-4-yl-thiazole-2-carboxamide] was < 100 nM.
